Where two headings read alike, the source gives them in different places.
Tests used:
SARS-CoV-2 [1] = experiment: microbe, parasite or virus in culture; assay type: cell-based
[2] = Cytotoxicity assay, methylene blue staining, Calu-3; conditions: human
in vitro [3] = conditions: human
in vitro [4] = conditions: African green monkey
SARS-CoV-2 [5] = experiment: SARS-CoV-2 replication inhibition in Vero E6 cells (PFU titration); conditions: for EC50: read-out: EC50 24 h, Vero E6, MOI 0.01, 24 hpi; for inhibition of SARS-CoV-2 replication: Vero E6, 24 hpi, 10 µM
SARS-CoV-2 [6] = tested on: SARS-CoV-2; set-up: method as in PMID 32759267; conditions: infected Vero E6 cells; cited from earlier work
SARS-CoV-2 [7] = tested on: SARS-CoV-2; set-up: method as in PMID 33880524; conditions: Calu-3-based assays, 48 hpi; cited from earlier work
SARS-CoV-2 [8] = conditions: cell model not given; read-out: estimated EC50; cited from earlier work
[9] = Severe acute respiratory syndrome coronavirus 2, 24 h, Calu-3, MOI 0.01, 24 hpi, read-out: EC50 24 h
[10] = Severe acute respiratory syndrome coronavirus 2, 48 h, Calu-3, MOI 0.01, 48 hpi, read-out: EC50 48 h
[11] = Severe acute respiratory syndrome coronavirus 2, Calu-3, 24 h, read-out: EC50 24 h, Calu-3, MOI 0.01, 24 hpi
[12] = Severe acute respiratory syndrome coronavirus 2, Calu-3, 48 h, read-out: EC50 48 h, Calu-3, MOI 0.01, 48 hpi
[13] = read-out: EC50 48 h, Calu-3, MOI 0.01, 48 hpi
[14] = Severe acute respiratory syndrome coronavirus 2, Calu-3, read-out: inhibition of coronavirus replication
[15] = read-out: EC50 24 h, Calu-3, MOI 0.01, 24 hpi

Compound: Cc1cn([C@H]2C[C@H](N=[N+]=[N-])[C@@H](CO)O2)c(=O)[nH]c1=O [AZT, azidothymidine, reference compound]
- EC50 (SARS-CoV-2 [1]; [9]): > 10 µM
- EC50 (SARS-CoV-2 [1]; [10]): > 10 µM
- CC50 at 72 h [2]: > 200 µM

Compound: Cc1cn([C@H]2C[C@H](N)[C@@H](C[Se]c3ccccc3)O2)c(=O)[nH]c1=O [R3a]
- EC50 (SARS-CoV-2 [1]; [11]): 6.37 ± 0.58 µM
- EC50 (SARS-CoV-2 [1]; [12]): 3.67 ± 1.57 µM
- CC50 (in vitro [3]): > 200 µM
- CC50 (in vitro [4]): > 200 µM
- EC50 (SARS-CoV-2 [5]): 2.25 ± 0.43 µM

Compound: Cc1ccc([Se]C[C@H]2O[C@@H](n3cc(C)c(=O)[nH]c3=O)C[C@@H]2N)cc1 [R3b]
- EC50 (SARS-CoV-2 [1]; [11]): 3.82 ± 1.42 µM
- EC50 (SARS-CoV-2 [1]; [12]): 1.33 ± 0.35 µM
- inhibition at 10 µM (SARS-CoV-2 [1]; Severe acute respiratory syndrome coronavirus 2, Calu-3, read-out: inhibition of viral replication): 95%
- CC50 (in vitro [3]): > 200 µM
- CC50 (in vitro [4]): > 200 µM
- EC50 (SARS-CoV-2 [5]): 2.97 ± 0.62 µM

Compound: COc1ccc([Se]C[C@H]2O[C@@H](n3cc(C)c(=O)[nH]c3=O)C[C@@H]2N)cc1 [R3c]
- EC50 (SARS-CoV-2 [1]; [11]): 5.17 ± 0.81 µM
- EC50 (SARS-CoV-2 [1]; [12]): 3.43 ± 1.52 µM
- CC50 (in vitro [3]): > 200 µM
- CC50 (in vitro [4]): > 200 µM
- EC50 (SARS-CoV-2 [5]): 3.31 ± 0.92 µM

Compound: Cc1cn([C@H]2C[C@H](N)[C@@H](C[Se]c3ccc(Cl)cc3)O2)c(=O)[nH]c1=O [R3d]
- EC50 (SARS-CoV-2 [1]; [11]): 8.29 ± 0.82 µM
- EC50 (SARS-CoV-2 [1]; [12]): ≤ 2.57 µM
- EC50 (SARS-CoV-2 [1]; [13]): 2.17 ± 0.64 µM
- CC50 (in vitro [3]): > 200 µM
- CC50 (in vitro [4]): 98.8 ± 11.7 µM
- EC50 (SARS-CoV-2 [5]): 1.23 ± 0.54 µM

Compound: Cc1cn([C@H]2C[C@H](N)[C@@H](C[Se]c3cccc4ccccc34)O2)c(=O)[nH]c1=O [R3e]
- EC50 (SARS-CoV-2 [1]; [11]): ≤ 2 µM
- EC50 (SARS-CoV-2 [1]; [12]): ≤ 2.57 µM
- inhibition at 10 µM (SARS-CoV-2 [1]; [14]): > 95%
- EC50 (SARS-CoV-2 [1]; [15]): 1.92 ± 0.43 µM
- EC50 (SARS-CoV-2 [1]; [13]): 2.31 ± 0.54 µM
- CC50 (in vitro [3]): 156 ± 5 µM
- CC50 (in vitro [4]): > 200 µM
- inhibition of SARS-CoV-2 replication (SARS-CoV-2 [5]): approximately 95%
- EC50 (SARS-CoV-2 [5]): 1.99 ± 0.42 µM

Compound: Cc1cn([C@H]2C[C@H](N)[C@@H](C[Te]c3ccccc3)O2)c(=O)[nH]c1=O [R3f]
- EC50 (SARS-CoV-2 [1]; [11]): ≤ 2 µM
- EC50 (SARS-CoV-2 [1]; [12]): 4.86 ± 1.31 µM
- inhibition at 10 µM (SARS-CoV-2 [1]; [14]): > 95%
- CC50 (in vitro [3]): 44.6 ± 8.3 µM
- CC50 (in vitro [4]): 52.1 ± 12.7 µM
- inhibition of SARS-CoV-2 replication (SARS-CoV-2 [5]): approximately 95%
- EC50 (SARS-CoV-2 [5]): 2.67 ± 0.63 µM

Compound: Cc1ccc([Te]C[C@H]2O[C@@H](n3cc(C)c(=O)[nH]c3=O)C[C@@H]2N)cc1 [R3n]
- EC50 (SARS-CoV-2 [1]; [11]): ≤ 2 µM
- EC50 (SARS-CoV-2 [1]; [12]): ≤ 2.57 µM
- inhibition at 10 µM (SARS-CoV-2 [1]; [14]): > 95%
- EC50 (SARS-CoV-2 [1]; [15]): 1.18 ± 0.61 µM
- EC50 (SARS-CoV-2 [1]; [13]): 2.57 ± 0.62 µM
- CC50 (in vitro [3]): 68.7 ± 11.4 µM
- CC50 (in vitro [4]): 60.1 ± 4.4 µM
- EC50 (SARS-CoV-2 [5]): 6.1 ± 0.41 µM

Compound: COc1ccc([Te]C[C@H]2O[C@@H](n3cc(C)c(=O)[nH]c3=O)C[C@@H]2N)cc1 [R3o]
- EC50 (SARS-CoV-2 [1]; [11]): 6.18 ± 2.05 µM
- EC50 (SARS-CoV-2 [1]; [12]): ≤ 2.57 µM
- EC50 (SARS-CoV-2 [1]; [13]): 1.99 ± 1.73 µM
- CC50 (in vitro [3]): 30.7 ± 5.6 µM
- CC50 (in vitro [4]): 39.9 ± 4.4 µM
- EC50 (SARS-CoV-2 [5]): 4.95 ± 0.64 µM

Compound: Cc1cn([C@H]2C[C@H](N)[C@@H](C[Te]c3ccc(Cl)cc3)O2)c(=O)[nH]c1=O [R3p]
- EC50 (SARS-CoV-2 [1]; [11]): 4.33 ± 1.03 µM
- EC50 (SARS-CoV-2 [1]; [12]): 12.7 ± 1.74 µM
- CC50 (in vitro [3]): 35.2 ± 7.5 µM
- CC50 (in vitro [4]): 49.7 ± 7.5 µM
- inhibition of SARS-CoV-2 replication (SARS-CoV-2 [5]): approximately 95%
- EC50 (SARS-CoV-2 [5]): 4.89 ± 0.52 µM

Compound: Cc1cn([C@H]2C[C@H](N)[C@@H](C[Te]c3cccc4ccccc34)O2)c(=O)[nH]c1=O [R3q]
- EC50 (SARS-CoV-2 [1]; [11]): ≤ 2 µM
- inhibition at 10 µM (SARS-CoV-2 [1]; [14]): > 95%
- EC50 (SARS-CoV-2 [1]; [15]): 2.03 ± 0.32 µM
- CC50 (in vitro [3]): 34.3 ± 10.2 µM
- melting point: 134.1 to 135.6 °C
- CC50 (in vitro [4]): 33.6 ± 6.9 µM
- EC50 (SARS-CoV-2 [5]): 4.21 ± 0.43 µM

Compound: Cc1cn([C@H]2C[C@H](N)[C@@H](CSc3ccccc3)O2)c(=O)[nH]c1=O [R3r]
- EC50 (SARS-CoV-2 [1]; [9]): > 10 µM
- EC50 (SARS-CoV-2 [1]; [10]): > 10 µM
- CC50 at 72 h (in vitro [3]): > 200 µM

Compound: COC(=O)N[C@H](C(=O)N[C@@H](Cc1ccccc1)[C@@H](O)CN(Cc1ccc(-c2ccccn2)cc1)NC(=O)[C@@H](NC(=O)OC)C(C)(C)C)C(C)(C)C [atazanavir]
- EC50 (SARS-CoV-2 [6]): 2 ± 0.12 µM

Compound: COC(=O)N[C@H](C(=O)N1CCC[C@H]1c1nc(-c2ccc(-c3ccc(-c4c[nH]c([C@@H]5CCCN5C(=O)[C@@H](NC(=O)OC)C(C)C)n4)cc3)cc2)c[nH]1)C(C)C [daclatasvir]
- EC50 (SARS-CoV-2 [7]): 1.1 ± 0.3 µM

Compound: CC(C)C(=O)OC[C@H]1O[C@@H](n2ccc(NO)nc2=O)[C@H](O)[C@@H]1O [molnupiravir]
- EC50 (SARS-CoV-2 [8]): 1.97 µM
